Results published in patent US10144726B2, “Modulators of the p70S6 kinase for use in the treatment of brain disorders and triple-negative breast cancer” (SENTINEL ONCOLOGY LIMITED, priority 2015, dated 2018).
Structures can show the parent of a compound that is named as a salt. Where two headings read alike, the source gives them in different places.

How the values were obtained:
MCF-7 cells = assay: MCF-7 proliferation assay (Alamar blue, 72 h); format: cell-based; details: Homo sapiens, MCF7, 72 h; read-out: (c) MCF-7 proliferation IC50
Description: The following assay was used to determine the ability of test compounds to inhibit cell growth.
The following protocol was used: • 1) MCF-7 cells were seeded in 96-well plates at 5000 cells per well and allowed to adhere overnight prior to addition of compound or vehicle control. • 2) Test compounds were prepared from 10 mM DMSO stocks to give a final concentration range of 100 μM, 30 μM, 10 μM, 3 μM, 1 μM, 0.3 μM, 0.1 μM, 0.03 μM, 0.01 μM and vehicle control. The DMSO content was constant at 1%. • 3) Test compounds were incubated with the cells for 72 h at 37° C. 5% CO2 in a humidified atmosphere. • 4) Alamar blue 10% (v/v) was then added and incubated for a further 6 h, and fluorescent product detected using the BMG FLUOstar plate reader. • 5) Data were analysed using a 4-parameter logistic equation in GraphPad Prism.

p70S6K (h) = p70S6K (h) (Homo sapiens, UniProt P23443); assay: Determination of p70S6 inhibitory activity (radiometric kinase assay); format: biochemical; details: read-out: (a) p70S6K1 IC50
Description: The ability of compounds of the invention to inhibit P70S6 kinase was determined using the protocol below.
20 mM MOPS, 1 mM EDTA, 0.01% Brij-35, 5% Glycerol, 0.1% b-mercaptoethanol, 1 mg/mL BSA
In a final reaction volume of 25 μL, p70S6K (h) (5-10 mU) is incubated with 8 mM MOPS pH 7.0, 0.2 mM EDTA, 100 μM KKRNRTLTV, 10 mM Mg acetate and [γ-33P-ATP] (specific activity approx. 500 cpm/pmol, concentration as required). The reaction is initiated by the addition of the MgATP mix. After incubation for 40 minutes at room temperature, the reaction is stopped by the addition of 5 μL of a 3% phosphoric acid solution. 10 μL of the reaction mixture is then spotted onto a P30 filtermat and washed three times for 5 minutes in 75 mM phosphoric acid and once in methanol prior to drying and scintillation counting.

[1] = Brain and plasma concentrations in an in vivo cassette mouse model; design: species or system male CD-1 mice; details: male, PO cassette, 2.5 mg/kg per compound; for Kp at 3 h: read-out: (d) Brain: Plasma ratio at 3 hours
Description: The compounds of this invention were evaluated in an in vivo cassette mouse model to determine brain and plasma concentrations following oral dosing. This is an industry-standard and recognised means to assess brain penetration of small molecules (for recent literature article, refer to In vitro permeability analysis, pharmacokinetic and brain distribution study in mice of imperatorin, isoimperatorin and cnidilin in Radix Angelicae Dahuricae, Fitoterapia, Volume 85, March 2013 , Pages 144-153). It is also recognised that higher brain concentrations (and higher ratios of brain: plasma concentration) lead to greater exposure in the brain—this is clearly advantageous if the brain is the site of action.
For a single cassette study, male CD-1 mice were used (n=3 per timepoint, two timepoints: 1.0 hr and 3.0 hr).
5 compounds were dosed PO per cassette (dose level 2.5 mg/kg per compound, dose conc. 0.25 mg/ml, dose volume 10.0 ml/kg).
Formulation used to solubilize compounds: 10% DMSO/90% hydroxypropyl-β-cyclodextrin (20% w/v aqueous)
Sampling was terminal and plasma and brain matrices were generated. To prepare plasma samples, protein was precipitated using acetonitrile. To prepare brain samples, homogenisation and protein precipitation was performed with acetonitrile. Samples were analysed using HPLC-TOF MS using electrospray ionisation.

[2] = test system: phosphorylation of S6 Ser235/236 in MCF-7 cells; assay: MCF-7 pS6 ELISA (phosphorylation of S6 Ser235/236); format: cell-based; details: Homo sapiens, MCF7; for IC50: S6 Ser235/236, 1% FBS, 2 h, read-out: (b) MCF-7 pS6 ELISA IC50
Description: The following assay provides IC50 values for inhibition of P70S6K activity in a whole cell assay by determining effects on the phosphorylation of S6^Ser235/236 in MCF-7 cells by ELISA.
The following protocol was used: • 1) MCF-7 cells were seeded in 96-well plates at a density of 7000 cells per well and allowed to adhere for 6 h in media containing 10% FBS. • 2) The full serum media was replaced and cells incubated overnight in media containing 1% FBS, prior to addition of test compounds. • 3) Test compounds were prepared from 10 mM DMSO stocks to give final concentration ranges as indicated on graphs. DMSO was constant at a final concentration of 1%. • 4) Test compounds were incubated with cells in duplicate for 2 h at 37° C/5% CO2 in a humidified atmosphere. • 5) The media was removed and cells were lysed by freeze-thawing in cell lysis buffer. • 6) Detection of phosphorylated S6Ser235/236 was then carried out using a PathScan ELISA kit (Cell Signaling Technology #7205). • 7) Lysates were diluted 1:1 with sample diluent before being applied to wells coated with an antibody against phosphorylated-S6 protein. • 8) The ELISA was then performed as stated in the manufacturers' instructions. • 9) The raw data were normalised to control values and analysed using a 4-parameter logistic equation in GraphPad Prism.

[3] = test system: phosphorylation of S6 at Serine residues 240 and 244 in MCF7 cells; assay: MCF7 pS6 ELISA variant (pS240/244, 0% FBS); format: cell-based; details: Homo sapiens, S6 Serine 240 and 244 detected, read-out: (b) MCF-7 pS6 ELISA IC50 (pS240/244 variant)
[4] = CD-1, brain, read-out: (d) Brain conc. at 3 hours
[5] = CD-1, plasma, read-out: (d) Plasma conc. at 3 hours

p70S6K (h), sequence (P23443 whole entry): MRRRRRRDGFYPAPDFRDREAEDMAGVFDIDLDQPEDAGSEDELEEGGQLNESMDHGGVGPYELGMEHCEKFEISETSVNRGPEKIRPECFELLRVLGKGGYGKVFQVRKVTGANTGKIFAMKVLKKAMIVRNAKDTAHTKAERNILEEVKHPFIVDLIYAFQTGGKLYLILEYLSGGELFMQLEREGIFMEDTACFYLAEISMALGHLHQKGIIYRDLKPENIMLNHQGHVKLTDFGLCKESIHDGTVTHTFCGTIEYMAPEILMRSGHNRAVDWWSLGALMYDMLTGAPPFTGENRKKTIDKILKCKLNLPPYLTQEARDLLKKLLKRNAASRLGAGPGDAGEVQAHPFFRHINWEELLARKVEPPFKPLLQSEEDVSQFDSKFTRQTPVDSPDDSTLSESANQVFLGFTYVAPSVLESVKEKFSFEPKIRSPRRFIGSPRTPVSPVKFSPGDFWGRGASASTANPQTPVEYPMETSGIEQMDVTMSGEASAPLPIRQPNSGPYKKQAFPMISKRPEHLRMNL

Structure (SMILES) | IC50 (MCF-7 cells) [nM] | IC50 (p70S6K (h)) [nM] | concentration at 3 h [1, 4] [nM] | Kp at 3 h ([1]; CD-1, brain) | concentration at 3 h [1, 5] [nM] | IC50 [2] [nM] | IC50 [3] [nM] | inhibition at 0.3 µM ([2]; at 0.3 uM, read-out: (b) MCF-7 pS6 ELISA inhibition) [%]
Clc1cccc(CNc2cnc3cc(-c4cn[nH]c4)ccc3n2)c1 [Example 2] | 15000 | 25 | 1500 | 1.2 | 1230 | 400 | – | –
COc1cccc(CNc2cnc3cc(-c4cn[nH]c4)ccc3n2)c1 [Example 4] | 2300 | 30 | 1080 | 0.6 | 1730 | 400 | – | –
CCN(Cc1ccccc1)c1cnc2cc(-c3cn[nH]c3)ccc2n1 [Example 6] | 28000 | 33 | 2380 | 4.3 | 550 | – | – | –
CN(Cc1ccccc1)c1nc2ccc(-c3cn[nH]c3)cc2[n+]([O-])n1 [Example 10] | – | 62 | 750 | 4.2 | 180 | – | – | –
CN(Cc1ccccc1)c1nnc2cc(-c3cn[nH]c3)ccc2n1 [Example 11] | – | 64 | 2620 | 7.5 | 350 | – | – | –
COc1cccc([C@@H](C)Nc2cnc3cc(-c4cn[nH]c4)ccc3n2)c1 [Example 12] | 8400 | 7 | 2400 | 0.5 | 5050 | 800 | – | –
COc1cccc([C@@H](C)N(C)c2cnc3cc(-c4cn[nH]c4)ccc3n2)c1 [Example 14] | 9000 | 9 | 2650 | 3.3 | 790 | 900 | – | –
Cc1cccc([C@@H](C)Nc2cnc3cc(-c4cn[nH]c4)ccc3n2)c1 [Example 16] | 4200 | 18 | 3250 | 1 | 3340 | – | – | 57
C[C@@H](Nc1nc2ccc(-c3cn[nH]c3)cc2[n+]([O-])n1)c1ccccc1 [Example 18, 1-oxido-N-[(1R)-1-phenylethyl]-7-(1H-pyrazol-4-yl)-1,2,4-benzotriazin-1-ium-3-amine hydrochloride] | – | 12 | 990 | 1.8 | 560 | – | 5040 | –
C[C@@H](Nc1nnc2cc(-c3cn[nH]c3)ccc2n1)c1ccccc1 [Example 19, N-[(1 R)-1-phenylethyl]-7-(1H-pyrazol-4-yl)-1,2,4-benzotriazin-3-amine hydrochloride] | – | 22 | 2330 | 2.9 | 810 | – | 4590 | –

Further compounds by falling IC50 (p70S6K (h)), results first:

IC50 (MCF-7 cells) [nM] | IC50 (p70S6K (h)) [nM] | concentration at 3 h [1, 4] [nM] | Kp at 3 h ([1]; CD-1, brain) | concentration at 3 h [1, 5] [nM] | IC50 [2] [nM] | IC50 [3] [nM] | Structure (SMILES) | inhibition at 0.3 µM ([2]; at 0.3 uM, read-out: (b) MCF-7 pS6 ELISA inhibition) [%]
– | 32 | 210 | 1.3 | 160 | – | – | [O-][n+]1nc(NCc2ccccc2)nc2ccc(-c3cn[nH]c3)cc21 [Example 17] | –
5300 | 26 | 590 | 1.1 | 520 | 3200 | – | Fc1ccc(CNc2cnc3cc(-c4cn[nH]c4)ccc3n2)cc1 [Example 3] | –
24000 | 26 | 820 | 1.1 | 760 | 1400 | – | Fc1ccc(CNc2cnc3cc(-c4cn[nH]c4)ccc3n2)cc1F [Example 8] | –
33000 | 12 | 2480 | 3.3 | 760 | 3200 | – | CN(Cc1ccc(F)cc1)c1cnc2cc(-c3cn[nH]c3)ccc2n1 [Example 5] | –
7000 | 9 | 2880 | 3.5 | 830 | 900 | – | CN(Cc1cccc(F)c1)c1cnc2cc(-c3cn[nH]c3)ccc2n1 [Example 7] | –
– | 5 | 2960 | 4.2 | 700 | 1200 | – | C[C@H](c1ccccc1)N(C)c1cnc2cc(-c3cn[nH]c3)ccc2n1 [Example 13] | –
12200 | 4 | 3650 | 3.8 | 970 | 3000 | – | CN(Cc1ccccc1)c1cnc2cc(-c3cn[nH]c3)ccc2n1 [Example 1] | –
15000 | 3 | 2070 | 1.4 | 1510 | 300 | – | C[C@@H](Nc1cnc2cc(-c3cn[nH]c3)ccc2n1)c1ccccc1 [Example 9] | –
